Assay results reported in article PMC6374164 (Organic & biomolecular chemistry, 2019).

Experiments:
p38-δ = details: tested at 1 μM; cited from earlier work
breast epithelial cells = details: cited from earlier work
TRKB = details: tested at 1 μM; cited from earlier work
BPTF bromodomain = BPTF bromodomain (Homo sapiens, UniProt Q12830); experiment: PrOF NMR binding to 5FW-labeled BPTF bromodomain; details: 5FW BPTF bromodomain, 19F resonance of W2824
CDK11 = details: tested at 1 μM; cited from earlier work
BPTF = details: cited from earlier work
parasite = details: cited from earlier work
[1] = Aqueous solubility by solution turbidity; type: physicochemical
TRKC = TRKC (Homo sapiens, UniProt Q16288); details: tested at 1 μM; cited from earlier work
CDKL2 = target: T1, CDKL2 (Homo sapiens, UniProt Q92772); details: tested at 1 μM; cited from earlier work
T1 sequence (Q92772 1-493): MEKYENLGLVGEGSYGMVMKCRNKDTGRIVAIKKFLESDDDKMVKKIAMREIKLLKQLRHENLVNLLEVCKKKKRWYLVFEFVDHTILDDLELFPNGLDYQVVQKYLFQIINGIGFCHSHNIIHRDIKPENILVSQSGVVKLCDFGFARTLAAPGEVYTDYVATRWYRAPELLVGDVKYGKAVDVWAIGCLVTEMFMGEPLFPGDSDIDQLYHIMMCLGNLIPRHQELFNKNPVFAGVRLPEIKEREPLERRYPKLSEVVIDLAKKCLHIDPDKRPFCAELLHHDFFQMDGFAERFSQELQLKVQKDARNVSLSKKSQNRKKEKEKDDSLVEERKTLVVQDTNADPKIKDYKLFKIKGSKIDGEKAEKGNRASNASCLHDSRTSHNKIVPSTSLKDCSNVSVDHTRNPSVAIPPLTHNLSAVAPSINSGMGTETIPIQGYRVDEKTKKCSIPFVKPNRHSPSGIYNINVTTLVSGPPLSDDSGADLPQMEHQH

HPK1 = details: tested at 1 μM; cited from earlier work

Sequence of TRKC (Q16288 32-839): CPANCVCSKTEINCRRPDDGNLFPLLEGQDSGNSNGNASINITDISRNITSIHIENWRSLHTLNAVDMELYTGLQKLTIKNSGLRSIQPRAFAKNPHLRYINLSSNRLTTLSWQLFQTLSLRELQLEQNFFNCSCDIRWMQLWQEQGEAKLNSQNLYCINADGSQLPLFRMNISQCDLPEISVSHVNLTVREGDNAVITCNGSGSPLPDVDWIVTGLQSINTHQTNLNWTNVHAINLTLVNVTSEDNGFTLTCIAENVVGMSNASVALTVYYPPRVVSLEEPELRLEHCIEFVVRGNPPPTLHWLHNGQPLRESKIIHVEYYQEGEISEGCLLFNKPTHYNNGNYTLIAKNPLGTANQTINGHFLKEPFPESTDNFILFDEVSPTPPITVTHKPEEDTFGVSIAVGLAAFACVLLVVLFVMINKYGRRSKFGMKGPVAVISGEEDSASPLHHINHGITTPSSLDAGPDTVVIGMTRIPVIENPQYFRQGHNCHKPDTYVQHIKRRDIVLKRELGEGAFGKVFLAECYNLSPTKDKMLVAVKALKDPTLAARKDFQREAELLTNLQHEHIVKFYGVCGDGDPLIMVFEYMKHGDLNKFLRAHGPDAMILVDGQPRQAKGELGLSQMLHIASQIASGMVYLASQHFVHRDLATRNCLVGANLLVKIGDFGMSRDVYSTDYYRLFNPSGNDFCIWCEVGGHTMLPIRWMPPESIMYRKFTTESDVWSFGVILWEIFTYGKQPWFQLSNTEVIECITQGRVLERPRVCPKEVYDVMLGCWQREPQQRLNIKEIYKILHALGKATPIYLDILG

SMILES: COC(=O)c1cccc(NC(=O)NC2CCN(c3ccnc(Nc4ccc(F)cc4)n3)C2)c1 (racemic) [rac-1]
- inhibition of p38-δ (p38-δ): 51–68%
- effects in breast epithelial cells (breast epithelial cells): decreased c-MYC regulated genes, c-MYC chromatin occupancy, and led to G1 cell cycle arrest
- inhibition of TRKB (TRKB): 51–68%
- PrOF NMR binding behaviour of the 5FW BPTF resonance (BPTF bromodomain): significant broadening of the fluorine resonance
- inhibition of CDK11 (CDK11): 51–68%
- transcription in a BPTF-specific reporter assay (BPTF): reducing transcription
- antimalarial activity (parasite): has shown antimalarial activity
- solubility (concentration above which solution turbidity increases) [1]: ~ 100 μM
- inhibition of TRKC (TRKC): 82%
- inhibition of CDKL2 (CDKL2): 82%
- inhibition of HPK1 (HPK1): 51–68%
